Patent publication US20070219220A1, “Pyrazolopyrimidinethione Derivatives, Salts and Solvates Thereof, Preparation Methods and Use Thereof” (priority 2003, published 2007)
Read-outs that look alike come from different tables or passages of the source. Marks after values point to notes of the source that are not given here.

Tests used:
[1] = cited from earlier work
dog = conditions: cited from earlier work
healthy mice = conditions: within two hours, cited from earlier work
rats with testis removed [2] = test: Penile erection caused by stimulating electric current in rats with testes removed (Example 7); assay type: in vivo, wistar rats; conditions: for penile swelling time (in words) / latent period of the penile erection (in words): compared with control; for latent period of the penile erection (in words): P<0.001; for Latent period / Swelling time: stimulation 35 min after administration
From the text: Methods: Forty healthy adult male wistar rats were used in the study, with the body weight ranging from 230 g to 250 g. The rats were anesthetized with sodium pentobarbital, and their testes were squeezed into the scrotum. After sterilization, the scrotum was dissected with an operation knife. The testes and epididymis were taken out respectively and then ligated. The wound were sutured and 100,000 unit of penicillin was administrated to each rat for three consecutive days. After breeding for one week, the rats were used for the tests. The animals may be used repeatedly and the interval between any two of the tests was one week. […] Sildenafil at the dose of 50 mg/kg was used as the positive control. The control group is (1% sodium carboxymethyl cellulose). In 35 min after the administration, the penis of the rats was stimulated with SEN-3201 stimulator (NIHON KOHDEN, Japan), with the following parameters: the stimulating voltage of 10V, the time interval (T1) of 250 msec, the deferment time (T2) of 10 msec, the duration (T3) of 500 μsec, and the stimulation rank (n) of 25. At the same time, the latent period (sec) of the penile erection and the penile swelling time (min) were recorded with a three-channel stop-watch.

anesthetized dogs = test: Blood pressure, heart rate and respiration of anesthetized dogs (Example 11); assay type: in vivo; conditions: for arterial blood pressure (systolic and diastolic), heart rate and respiration (frequency and depth), in words: oral 40 mg/kg, in 3 hours after administration
Experimental: Methods: eight healthy male dogs with the body weight ranging from 12-15 kg were used. The dogs were anesthetized with 30 mg/kg of sodium pentobarbital. The femoral artery was dissected and inserted with a blood pressure transducer to record the blood pressure. The limbs were pierced with electrodes for recording the electrocardiogram. The respiration belt was wrapped around their chest and the respiration rate was recorded. The apparatus used was RM-6000 Polygraph system (NIHON KOHDEN, Japan). The changes in the arterial blood pressure, the heart rate, and the respiration were observed after the test compound was introduced into the stomach of the anesthetized dogs via 14# catheter.

mice with testis removed = test: Sexual function (back climbing) of testis-removed mice (Example 10); assay type: in vivo, KM mice; conditions: for Incidence: back climbing within 2 hours after administration; for Times of back climbing / Number of the animals who performed back climbing: within 2 hours after administration; for Number of the animals who performed back climbing: 10 male mice
From the text: Methods: Forty healthy KM male mice with the body weight ranging from 28-32 g and forty healthy KM female mice with body weight ranging from 24-28 g were used. Each male mouse was anesthetized with sodium pentobarbital, and the testes were squeezed into the scrotum. After sterilization, the scrotum was dissected with an operating knife. The testes and epididymis were respectively taken out, and then ligated. The wound were sutured and each of the mice was administrated with 100,000 units of penicillin for three consecutive days. After being bred for one week, the mice were used for the tests. The animals may be employed repeatedly and the interval between any two tests was 72 hours. To the mice, the following compounds were orally administered: compound (1), compound (2), compound (3), and compound (4), each at the dose of 80 mg/kg and 40 mg/kg, respectively. The positive control agent was Sildenafil, at the dose of 80 mg/kg. The control group was given with 1% of sodium carboxymethyl cellulose. At 30 min after the administration, the male mice who had taken the above agents were put into the cages of female mice, with the male-to-female rate of 1:1. There were three males and three females in each cage. The times of back climbing on the female mice performed by the male mice, and the percentage of occurrence were observed within 2 hours after the administration.

[3] = Preliminary acute toxicity, Bliss method (Example 13); conditions: rat, in vivo, oral and intragastric administration, rats
Experimental: Experimental methods: the toxicity test was conducted by oral and intragastric administration of the pyrazolopyrimidinethione derivatives of the invention using the Bliss method.

anesthetized rats = test: Blood pressure and heart rate of anesthetized rats (Example 12); assay type: in vivo, wistar rats
Experimental: Forty male wistar rats with the body weight ranging from 220-240 g were used in the study. Pharmaceuticals: compound (2) and Sildenafil, which were ground and then suspended with 1% of sodium carboxymethyl cellulose. Apparatus: RM-6000 eight-graph system (NIHON KOHDEN, Japan). The doses for administration and the division of the groups: solvent control group (abbreviated as the control group), 20 mg/kg of compound (2), 40 mg/kg of compound (2), 80 mg/kg of compound (2), and 50 mg/kg of Sildenafil. The administration route is through dodecadactylon. Methods: the male wistar rats were taken out and anesthetized with 35 mg/kg of sodium pentobarbital by injecting into the abdominal cavity, on the basis of their body weight. The rats were fixed on the operation table and were performed with the dissection operation of right carotid artery. The catheter with an external diameter of 1 mm was inserted into the right carotid artery. The blood pressure was measured and the electrodes positioned on the skin of the four limbs were used to record the electrocardiogram limb lead II. The catheter with an external diameter of 2 mm was inserted into the dodecadactylon via incision of the epigastric region, for the administration of the pharmaceuticals. RM-6000 eight-graph system (NIHON KOHDEN, Japan) was employed to record. Observation time: the value before administration, the values at 15, 30, 60, 120 and 180 min after the administration.

rats with testis removed [4] = test: Duration of penile erection in rats with testis removed (Example 8); assay type: in vivo, wistar rats; conditions: oral 50 mg/kg
[5] = prior-art filings, background section
[6] = 50 mg/kg through dodecadactylon, at 15 min after administration
[7] = 50 mg/kg through dodecadactylon, at 30 min after administration
[8] = 50 mg/kg through dodecadactylon, at 60 min after administration
[9] = 50 mg/kg through dodecadactylon, at 120 min after administration
[10] = 50 mg/kg through dodecadactylon, value before administration

Structure (SMILES): CCCc1nn(C)c2c(=O)[nH]c(-c3cc(S(=O)(=O)N4C[C@@H](C)N[C@@H](C)C4)ccc3OCC)nc12 [5-[2-ethoxy-5-(cis-3,5-dimethylpiperazin-1-sulfonyl)phenyl]-1-methyl-3-n-propyl-1,6-dihydro-7H-pyrazolo[4,3d]pyrimidin-7-one]
- LD50 [1, 5]: 772.5 to 1052.1 mg/kg

Structure (SMILES): CCCc1nn(CC)c2c(=O)[nH]c(-c3cc(S(=O)(=O)N4C[C@@H](C)N[C@@H](C)C4)ccc3OCC)nc12 [5-[2-ethoxy-5-(cis-3,5-dimethylpiperazine-1-sulfonyl)phenyl]-1-ethyl-3-n-propyl-1,6-dihydro-7H-pyrazolopyrimidin-7-one]
- diastolic pressure and heart rate (in words) (dog): dramatically decrease diastolic pressure and increase heart rate
- occurrences of back climbing (healthy mice; oral 15 mg/kg): 56.6%
- times of back climbing on the female mice performed by the male mice (healthy mice; oral 15 mg/kg): 43
- occurrences of back climbing (healthy mice; oral 30 mg/kg): 62.5%
- times of back climbing on the female mice performed by the male mice (healthy mice; oral 30 mg/kg): 53
- LD50 [1, 5]: greater than 2000 mg/kg

Structure (SMILES): CCCc1nn(CC)c2c(=S)[nH]c(-c3cc(S(=O)(=O)N4C[C@@H](C)N[C@@H](C)C4)ccc3OCC)nc12 [Compound (1), 5-[2-ethoxy-5-(cis-3,5-dimethylpiperazin-1-sulfonyl)phenyl]-1-ethyl-3-n-propyl-1,6-dihydro-7H-pyrazolo[4,3-d]pyrimidin-7-thione]
- penile swelling time (in words) (rats with testis removed [2]): lengthened
- latent period of the penile erection (in words) (rats with testis removed [2]): evidently shortened
- penile swelling time compared with positive control sildenafil (in words) (rats with testis removed [2]; compared with sildenafil 50 mg/kg): more evident
- Latent period (rats with testis removed [2]; oral 20 mg/kg): 28.8 ± 1.7 s
- Swelling time (rats with testis removed [2]; oral 20 mg/kg): 1305.1 ± 588.8 s
- Latent period (rats with testis removed [2]; oral 40 mg/kg): 29.5 ± 4.2 s
- Swelling time (rats with testis removed [2]; oral 40 mg/kg): 2943.1 ± 552.9 s
- arterial blood pressure (systolic and diastolic), heart rate and respiration (frequency and depth), in words (anesthetized dogs): did not experience an evident change
- Incidence (mice with testis removed; oral 40 mg/kg): 30%
- Times of back climbing (mice with testis removed; oral 40 mg/kg): 4
- Number of the animals who performed back climbing (mice with testis removed; oral 40 mg/kg): 3
- Incidence (mice with testis removed; oral 80 mg/kg): 40%
- Times of back climbing (mice with testis removed; oral 80 mg/kg): 7*
- Number of the animals who performed back climbing (mice with testis removed; oral 80 mg/kg): 4
- LD50 [3]: > 3000 mg/kg

Structure (SMILES): CCCc1nn(C)c2c(=S)[nH]c(-c3cc(S(=O)(=O)N4C[C@@H](C)N[C@@H](C)C4)ccc3OC)nc12 [Compound (3), 5-[2-methoxy-5-(cis-3,5-dimethylpiperazin-1-sulfonyl)phenyl]-1-methyl-3-n-propyl-1,6-dihydro-7H-pyrazolo[4,3-d]pyrimidin-7-thione]
- penile swelling time (in words) (rats with testis removed [2]): lengthened
- latent period of the penile erection (in words) (rats with testis removed [2]): evidently shortened
- Latent period (rats with testis removed [2]; oral 20 mg/kg): 32.8 ± 4.4 s
- Swelling time (rats with testis removed [2]; oral 20 mg/kg): 551.8 ± 350.8 s
- Latent period (rats with testis removed [2]; oral 40 mg/kg): 30.4 ± 2.6 s
- Swelling time (rats with testis removed [2]; oral 40 mg/kg): 809.6 ± 247.5 s
- arterial blood pressure (systolic and diastolic), heart rate and respiration (frequency and depth), in words (anesthetized dogs): did not experience an evident change
- Incidence (mice with testis removed; oral 40 mg/kg): 20%
- Times of back climbing (mice with testis removed; oral 40 mg/kg): 2
- Number of the animals who performed back climbing (mice with testis removed; oral 40 mg/kg): 2
- Incidence (mice with testis removed; oral 80 mg/kg): 30%
- Times of back climbing (mice with testis removed; oral 80 mg/kg): 4
- Number of the animals who performed back climbing (mice with testis removed; oral 80 mg/kg): 3
- LD50 [3]: 2500 mg/kg

Structure (SMILES): CCCOc1ccc(S(=O)(=O)N2C[C@@H](C)N[C@@H](C)C2)cc1-c1nc2c(CCC)nn(C)c2c(=S)[nH]1 [Compound (4), 5-[2-propoxy-5-(cis-3,5-dimethylpiperazin-1-sulfonyl)phenyl]-1-methyl-3-n-propyl-1,6-dihydro-7H-pyrazolo[4,3-d]pyrimidin-7-thione]
- penile swelling time (in words) (rats with testis removed [2]): lengthened
- latent period of the penile erection (in words) (rats with testis removed [2]): evidently shortened
- arterial blood pressure (systolic and diastolic), heart rate and respiration (frequency and depth), in words (anesthetized dogs): did not experience an evident change
- Incidence (mice with testis removed; oral 40 mg/kg): 20%
- Times of back climbing (mice with testis removed; oral 40 mg/kg): 3
- Number of the animals who performed back climbing (mice with testis removed; oral 40 mg/kg): 2
- Incidence (mice with testis removed; oral 80 mg/kg): 30%
- Times of back climbing (mice with testis removed; oral 80 mg/kg): 5
- Number of the animals who performed back climbing (mice with testis removed; oral 80 mg/kg): 3
- LD50 [3]: > 3000 mg/kg

Structure (SMILES): CCCc1nn(C)c2c(=O)[nH]c(-c3cc(S(=O)(=O)N4CCN(C)CC4)ccc3OCC)nc12 [Sildenafil, reference compound]
- Latent period (rats with testis removed [2]; oral 50 mg/kg): 28.9 ± 1.7 s
- Swelling time (rats with testis removed [2]; oral 50 mg/kg): 2272.5 ± 326.2 s
- occurrences of back climbing (healthy mice; oral 50 mg/kg): 50%
- times of back climbing on the female mice performed by the male mice (healthy mice; oral 50 mg/kg): 19
- LD50 ([1]; as reported in Chinese Journal of Clinical Pharmacology and Therapeutics (1999, 4(3): 237-240)): 635 mg/kg
- LD50 [1, 5]: 635 mg/kg
- blood pressure (in words) (anesthetized rats; 50 mg/kg through dodecadactylon): began to decrease at 15 min after the administration
- Heart rate (anesthetized rats; [6]): 445 ± 29.7 times/min
- Systolic pressure (anesthetized rats; [6]): 90 ± 29.7 mmHg
- diastolic pressure (anesthetized rats; [6]): 68 ± 29.7 mmHg
- Heart rate (anesthetized rats; [7]): 444 ± 29.6 times/min
- Systolic pressure (anesthetized rats; [7]): 90 ± 29.6 mmHg
- diastolic pressure (anesthetized rats; [7]): 70 ± 29.6 mmHg
- Heart rate (anesthetized rats; [8]): 437 ± 22.8 times/min
- Systolic pressure (anesthetized rats; [8]): 88 ± 22.9 mmHg
- diastolic pressure (anesthetized rats; [8]): 68 ± 22.9 mmHg
- Heart rate (anesthetized rats; [9]): 439 ± 22.6 times/min
- Systolic pressure (anesthetized rats; [9]): 93 ± 22.6 mmHg
- diastolic pressure (anesthetized rats; [9]): 71 ± 22.6 mmHg
- Heart rate (anesthetized rats; 50 mg/kg through dodecadactylon, before administration): 429 ± 26.1 times/min
- Systolic pressure (anesthetized rats; [10]): 120 ± 10.6 mmHg
- diastolic pressure (anesthetized rats; [10]): 98 ± 16.0 mmHg
- effect on the heart rate (in words) (anesthetized rats; 50 mg/kg, at 15 and 30 minutes after administration): increasing the heart rate
- blood pressure (in words) (anesthetized dogs; Sildenafil 40 mg/kg, mainly diastolic pressure): apparent effect of decreasing the blood pressure
- Incidence (mice with testis removed; oral 80 mg/kg): 70%
- Number of the animals who performed back climbing (mice with testis removed; oral 80 mg/kg): 6*
- how long the penile swelling effect lasts after administration (rats with testis removed [4]): about 1 hour
- Penile swelling time (rats with testis removed [4]; at 1 h after administration): 1067.0 ± 204.5 s
- Penile swelling time (rats with testis removed [4]; at 3 h after administration): 44.0 ± 11.3 s
- penile swelling time compared with control group (in words) (rats with testis removed [4]; at 3 hr after the administration): shorter than that of the control group
- Penile swelling time (rats with testis removed [4]; at 6 h after administration): 38.8 ± 5.6 s
- Penile swelling time (rats with testis removed [4]; at 24 h after administration): 61.0 ± 8.7 s
- Penile swelling time (rats with testis removed [4]; value before administration): 62.8 ± 7.7 s
